In patent US20120122148A1, “Media For The Specific Detection Of Gram-Negative Bacteria Resistant To Beta-Lactam Antibiotics” (bioMerieux, SA, priority 2009, published 2012):

Tests used:
Format in all cases: cell-based
[1] = tested on: Escherichia coli 0505101 (ESBL); test: Growth and enzymatic activity on ChromID CPS-based selective media; set-up: Enz act.: key to the marks not given beside the values; settings: cefpodoxime 4 mg/l (T), cefepime 0.25 mg/l (A), cefamandole 3 mg/l (B), cefuroxime 3 mg/l (C), each with 300 mg/l cloxacillin
From the text: (§1) Choice of strains: The inventors selected strains which make it possible to evaluate the activity of antibiotics with respect to Gram-negative species: enterobacteria and nonfermenting bacilli. In particular, ESBL-producing strains, high-level cephalosporinase-producing strains (HL Case) and strains without a particular resistance profile, termed wild-type strains, were used.
(§2) Preparation of media: The media tested were media composed of the peptone base of the ChromID CPS medium (bioMérieux ref 43541) to which were added, after autoclaving, in molten media, 300 mg/l cloxacillin and, for medium T: 4 mg/l cefpodoxime, for medium A: 0.25 mg/L of cefepime, for medium B: 3 mg/l of cefamandole and for medium C: 3 mg/l of cefuroxime.
(§3) Inoculation of media: The media are inoculated by carrying out a 3-quadrant streaking method using bacterial suspensions at 0.5 McF. The media are then incubated for 24 hours at 37° C.
(§4) Reading of media: The media are observed visually after 18 h and 24 hours of incubation, the growth density and also the colorations and coloration strengths are evaluated according to the scale below: • − or 0: absence of growth or of expression of enzymatic acitivity (i.e. no coloration) • +: weak growth, or enzymatic activity • ++: very strong growth density or strong enzymatic acitivity (very strong coloration)

[2] = tested on: Enterobacter spp 9306069 (HL case); test: as above; set-up: key to the marks not given beside the values; settings: cefpodoxime 4 mg/l (T), cefepime 0.25 mg/l (A), cefamandole 3 mg/l (B), cefuroxime 3 mg/l (C), each with 300 mg/l cloxacillin
From the text: as §1, §2, §3, §4

[3] = tested on: Escherichia coli 0411146 (ESBL); test: as above; set-up: key to the marks not given beside the values; settings: cefpodoxime 4 mg/l (T), cefepime 0.25 mg/l (A), cefamandole 3 mg/l (B), cefuroxime 3 mg/l (C), each with 300 mg/l cloxacillin
From the text: as §1, §2, §3, §4

[4] = tested on: Enterobacter aerogenes 0502112 (ESBL); test: as above; set-up: key to the marks not given beside the values; settings: cefpodoxime 4 mg/l (T), cefepime 0.25 mg/l (A), cefamandole 3 mg/l (B), cefuroxime 3 mg/l (C), each with 300 mg/l cloxacillin
From the text: as §1, §2, §3, §4

[5] = tested on: Klebsiella oxytoca 0502094 (ESBL); test: as above; set-up: key to the marks not given beside the values; settings: cefpodoxime 4 mg/l (T), cefepime 0.25 mg/l (A), cefamandole 3 mg/l (B), cefuroxime 3 mg/l (C), each with 300 mg/l cloxacillin
From the text: as §1, §2, §3, §4

[6] = tested on: Proteus mirabilis 9709068 (ESBL); test: as above; settings: cefpodoxime 4 mg/l (T), cefepime 0.25 mg/l (A), cefamandole 3 mg/l (B), cefuroxime 3 mg/l (C), each with 300 mg/l cloxacillin
From the text: as §1, §2, §3, §4

[7] = tested on: Morganella morganii 9904104 (HL case); test: as above; settings: cefpodoxime 4 mg/l (T), cefepime 0.25 mg/l (A), cefamandole 3 mg/l (B), cefuroxime 3 mg/l (C), each with 300 mg/l cloxacillin
From the text: as §1, §2, §3, §4

[8] = tested on: Serratia fonticola 8001047 (Wild-type); test: as above; settings: cefpodoxime 4 mg/l (T), cefepime 0.25 mg/l (A), cefamandole 3 mg/l (B), cefuroxime 3 mg/l (C), each with 300 mg/l cloxacillin
From the text: as §1, §2, §3, §4

[9] = tested on: Klebsiella oxytoca 0105100 (HL case); test: as above; settings: cefpodoxime 4 mg/l (T), cefepime 0.25 mg/l (A), cefamandole 3 mg/l (B), cefuroxime 3 mg/l (C), each with 300 mg/l cloxacillin
From the text: as §1, §2, §3, §4

[10] = tested on: Proteus mirabilis 0105105 (HL case); test: as above; settings: cefpodoxime 4 mg/l (T), cefepime 0.25 mg/l (A), cefamandole 3 mg/l (B), cefuroxime 3 mg/l (C), each with 300 mg/l cloxacillin
From the text: as §1, §2, §3, §4

[11] = tested on: Proteus mirabilis 0105109 (HL case); test: as above; settings: cefpodoxime 4 mg/l (T), cefepime 0.25 mg/l (A), cefamandole 3 mg/l (B), cefuroxime 3 mg/l (C), each with 300 mg/l cloxacillin
From the text: as §1, §2, §3, §4

[12] = tested on: Enterobacter spp 0503037 (Wild-type); test: as above; settings: cefpodoxime 4 mg/l (T), cefepime 0.25 mg/l (A), cefamandole 3 mg/l (B), cefuroxime 3 mg/l (C), each with 300 mg/l cloxacillin
From the text: as §1, §2, §3, §4

[13] = tested on: ESBL-producing strains, strains producing an HL Case, wild-type taxon strains; test: Overall conclusion on the selective media over the strain panel
From the text: as §1, §2, §3, §4

Question: What does the source list for Cn1nnnc1SCC1=C(C(=O)O)N2C(=O)[C@@H](NC(=O)[C@H](O)c3ccccc3)[C@H]2SC1 [Cefamandole, cefamandole]?
Answer: Enz act. ([1]; 18 h at 37° C.): ++; Growth ([1]; 18 h at 37° C.): ++; Enz act. ([1]; 24 h at 37° C.): ++; Growth ([1]; 24 h at 37° C.): ++; Enz act. ([2]; 18 h at 37° C.): ++; Growth ([2]; 18 h at 37° C.): ++; Enz act. ([2]; 24 h at 37° C.): ++; Growth ([2]; 24 h at 37° C.): ++; Enz act. ([3]; 18 h at 37° C.): ++; Growth ([3]; 18 h at 37° C.): ++; Enz act. ([3]; 24 h at 37° C.): ++; Growth ([3]; 24 h at 37° C.): ++; Enz act. ([4]; 18 h at 37° C.): ++; Growth ([4]; 18 h at 37° C.): ++; Enz act. ([4]; 24 h at 37° C.): ++; Growth ([4]; 24 h at 37° C.): ++; Enz act. ([5]; 18 h at 37° C.): ++; Growth ([5]; 18 h at 37° C.): ++; Enz act. ([5]; 24 h at 37° C.): ++; Growth ([5]; 24 h at 37° C.): ++; Enz act. ([6]; 18 h at 37° C.): −; Growth ([6]; 18 h at 37° C.): +; Enz act. ([6]; 24 h at 37° C.): +; Growth ([6]; 24 h at 37° C.): +; Enz act. ([7]; 18 h at 37° C.): −; Growth ([7]; 18 h at 37° C.): −; Enz act. ([7]; 24 h at 37° C.): −; Growth ([7]; 24 h at 37° C.): −; Enz act. ([8]; 18 h at 37° C.): +; Growth ([8]; 18 h at 37° C.): +; Enz act. ([8]; 24 h at 37° C.): ++; Growth ([8]; 24 h at 37° C.): +; Enz act. ([9]; 18 h at 37° C.): +; Growth ([9]; 18 h at 37° C.): +; Enz act. ([9]; 24 h at 37° C.): ++; Growth ([9]; 24 h at 37° C.): +; Enz act. ([10]; 18 h at 37° C.): −; Growth ([10]; 18 h at 37° C.): −; Enz act. ([10]; 24 h at 37° C.): −; Growth ([10]; 24 h at 37° C.): −; Enz act. ([11]; 18 h at 37° C.): −; Growth ([11]; 18 h at 37° C.): −; Enz act. ([11]; 24 h at 37° C.): −; Growth ([11]; 24 h at 37° C.): −; Enz act. ([12]; 18 h at 37° C.): ++; Growth ([12]; 18 h at 37° C.): ++; Enz act. ([12]; 24 h at 37° C.): ++; Growth ([12]; 24 h at 37° C.): ++

Question: Which results are given for CO/N=C(\C(=O)N[C@@H]1C(=O)N2C(C(=O)[O-])=C(C[N+]3(C)CCCC3)CS[C@H]12)c1csc(N)n1 [Cefepime, cefepime]?
Answer: Enz act. ([1]; 18 h at 37° C.): ++; Growth ([1]; 18 h at 37° C.): ++; Enz act. ([1]; 24 h at 37° C.): ++; Growth ([1]; 24 h at 37° C.): ++; sensitivity and specificity of detection of the ESBL strains ([13]; compared with cefpodoxime, cefamandole, cefuroxime media): best sensitivity and specificity; discrimination between the ESBL-producing strains, the strains producing an HL Case or the wild-type taxon strains ([13]; medium A: 0.25 mg/L cefepime with 300 mg/l cloxacillin): good discrimination; Enz act. ([2]; 18 h at 37° C.): ++; Growth ([2]; 18 h at 37° C.): ++; Enz act. ([2]; 24 h at 37° C.): ++; Growth ([2]; 24 h at 37° C.): ++; Enz act. ([3]; 18 h at 37° C.): ++; Growth ([3]; 18 h at 37° C.): ++; Enz act. ([3]; 24 h at 37° C.): ++; Growth ([3]; 24 h at 37° C.): ++; Enz act. ([4]; 18 h at 37° C.): ++; Growth ([4]; 18 h at 37° C.): ++; Enz act. ([4]; 24 h at 37° C.): ++; Growth ([4]; 24 h at 37° C.): ++; Enz act. ([5]; 18 h at 37° C.): ++; Growth ([5]; 18 h at 37° C.): ++; Enz act. ([5]; 24 h at 37° C.): ++; Growth ([5]; 24 h at 37° C.): ++; Enz act. ([6]; 18 h at 37° C.): +; Growth ([6]; 18 h at 37° C.): +; Enz act. ([6]; 24 h at 37° C.): +; Growth ([6]; 24 h at 37° C.): +; Enz act. ([7]; 18 h at 37° C.): −; Growth ([7]; 18 h at 37° C.): −; Enz act. ([7]; 24 h at 37° C.): −; Growth ([7]; 24 h at 37° C.): −; Enz act. ([8]; 18 h at 37° C.): −; Growth ([8]; 18 h at 37° C.): −; Enz act. ([8]; 24 h at 37° C.): −; Growth ([8]; 24 h at 37° C.): −; Enz act. ([9]; 18 h at 37° C.): −; Growth ([9]; 18 h at 37° C.): −; Enz act. ([9]; 24 h at 37° C.): −; Growth ([9]; 24 h at 37° C.): −; Enz act. ([10]; 18 h at 37° C.): −; Growth ([10]; 18 h at 37° C.): −; Enz act. ([10]; 24 h at 37° C.): −; Growth ([10]; 24 h at 37° C.): −; Enz act. ([11]; 18 h at 37° C.): −; Growth ([11]; 18 h at 37° C.): −; Enz act. ([11]; 24 h at 37° C.): −; Growth ([11]; 24 h at 37° C.): −; Enz act. ([12]; 18 h at 37° C.): −; Growth ([12]; 18 h at 37° C.): −; Enz act. ([12]; 24 h at 37° C.): −; Growth ([12]; 24 h at 37° C.): −
